Laboratory results reported in publication PMC8667043, “First-in-Class Inhibitors of the Ribosomal Oxygenase MINA53” (Journal of Medicinal Chemistry, 2021).

Key:
Assay type in all cases: biochemical
[1] = target: T1, NO66 (Homo sapiens, UniProt Q9H6W3); test: NO66 MS (RapidFire) hydroxylation inhibition assay, Rpl8 peptide; conditions: for IC50: IC50 NO66 (300 nM), MS based, enzyme 300 nM, means ± SD of at least three experiments
T1 construct: histidine tag (TEV-cleavable) (cleaved yes); made in house; host or cells: E. coli BL21(DE3)-R3-pRARE2
T1 sequence (Q9H6W3 183-641): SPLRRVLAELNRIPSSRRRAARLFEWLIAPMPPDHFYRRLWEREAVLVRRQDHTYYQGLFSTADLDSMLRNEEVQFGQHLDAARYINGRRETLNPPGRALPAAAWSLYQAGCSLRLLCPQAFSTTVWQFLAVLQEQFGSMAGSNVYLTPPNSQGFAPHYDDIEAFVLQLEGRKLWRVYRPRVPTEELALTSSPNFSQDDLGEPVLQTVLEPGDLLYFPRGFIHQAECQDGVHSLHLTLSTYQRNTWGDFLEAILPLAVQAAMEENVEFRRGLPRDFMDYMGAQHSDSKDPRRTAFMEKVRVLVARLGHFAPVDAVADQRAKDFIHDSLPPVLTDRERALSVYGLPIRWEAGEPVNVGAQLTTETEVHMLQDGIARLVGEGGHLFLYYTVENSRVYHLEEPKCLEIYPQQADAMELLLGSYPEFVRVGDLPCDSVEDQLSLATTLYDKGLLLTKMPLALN

[2] = target: T2, MINA53 (Homo sapiens, UniProt Q8IUF8); test: MINA53 MS (RapidFire) hydroxylation inhibition assay, Rpl27a peptide; conditions: for IC50: MS based, enzyme 150 nM, means ± SD of at least three experiments, read-out: IC50 MINA53 (150 nM); for preferential inhibition of MINA53 over all other tested 2OG oxygenases: worst case of the panel of Table 1
T2 construct: MINA53 (Met1-Val464 and Ala26-Val464); histidine tag (TEV-cleavable) (cleaved yes); made in house; host or cells: E. coli BL21(DE3)-R3-pRARE2
T2 sequence (Q8IUF8 1-464 isoform Q8IUF8-4): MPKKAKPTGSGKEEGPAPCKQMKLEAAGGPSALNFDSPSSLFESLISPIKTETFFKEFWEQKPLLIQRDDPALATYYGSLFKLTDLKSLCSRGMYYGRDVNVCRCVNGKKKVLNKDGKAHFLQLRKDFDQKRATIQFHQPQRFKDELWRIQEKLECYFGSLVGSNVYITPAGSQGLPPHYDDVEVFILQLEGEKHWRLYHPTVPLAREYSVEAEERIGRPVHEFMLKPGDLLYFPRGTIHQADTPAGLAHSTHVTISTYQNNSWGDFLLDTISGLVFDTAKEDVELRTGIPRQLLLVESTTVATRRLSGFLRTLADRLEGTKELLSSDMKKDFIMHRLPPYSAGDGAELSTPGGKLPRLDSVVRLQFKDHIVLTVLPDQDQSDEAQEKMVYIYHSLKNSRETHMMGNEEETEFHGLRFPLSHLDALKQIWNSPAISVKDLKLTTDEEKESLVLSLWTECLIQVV

[3] = target: T3, KDM2A (Homo sapiens, UniProt Q9Y2K7); test: AlphaScreen KDM inhibition assay; conditions: enzyme 25 nM, means ± SD
T3 construct: (M1-P517); His6 (N); made in house; host or cells: insect cells
T3 sequence (Q9Y2K7 1-517): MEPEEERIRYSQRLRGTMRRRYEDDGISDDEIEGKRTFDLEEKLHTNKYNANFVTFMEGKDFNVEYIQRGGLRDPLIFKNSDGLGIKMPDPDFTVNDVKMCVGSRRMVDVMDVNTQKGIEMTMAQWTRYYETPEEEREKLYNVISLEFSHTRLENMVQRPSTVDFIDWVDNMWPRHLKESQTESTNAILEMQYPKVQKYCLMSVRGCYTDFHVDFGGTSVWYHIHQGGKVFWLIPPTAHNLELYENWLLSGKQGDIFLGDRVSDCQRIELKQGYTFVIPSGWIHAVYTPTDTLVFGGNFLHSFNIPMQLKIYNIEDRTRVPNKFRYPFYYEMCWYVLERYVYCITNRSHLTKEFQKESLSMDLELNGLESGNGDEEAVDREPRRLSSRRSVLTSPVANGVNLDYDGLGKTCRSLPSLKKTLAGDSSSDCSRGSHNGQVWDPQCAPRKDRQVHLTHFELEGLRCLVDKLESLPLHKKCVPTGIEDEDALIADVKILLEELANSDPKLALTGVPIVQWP

[4] = target: T4, KDM4A (Homo sapiens, UniProt O75164); test: AlphaScreen KDM inhibition assay; conditions: read-out: IC50 KDM4A (4 nM), enzyme 4 nM, means ± SD
T4 construct: (M1- N-terminal R1641) His6-tagged N-terminal His6-tagged L359); made in house; host or cells: E. coli
T4 sequence (O75164 1-359): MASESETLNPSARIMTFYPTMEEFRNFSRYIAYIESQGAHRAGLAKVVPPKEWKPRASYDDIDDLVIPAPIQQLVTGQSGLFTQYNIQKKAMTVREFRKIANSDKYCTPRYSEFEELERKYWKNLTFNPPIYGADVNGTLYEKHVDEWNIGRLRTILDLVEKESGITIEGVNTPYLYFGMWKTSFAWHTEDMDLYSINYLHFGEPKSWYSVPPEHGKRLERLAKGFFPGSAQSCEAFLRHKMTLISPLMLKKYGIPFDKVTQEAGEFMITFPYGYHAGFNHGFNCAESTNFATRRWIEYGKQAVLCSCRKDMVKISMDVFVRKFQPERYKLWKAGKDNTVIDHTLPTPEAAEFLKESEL

[5] = target: T5, KDM4D (Homo sapiens, UniProt Q6B0I6); test: AlphaScreen KDM inhibition assay; conditions: read-out: IC50 KDM4D (2.0 nM), enzyme 2.0 nM, means ± SD
T5 construct: (M1-G373); His6 (N); made in house; host or cells: E. coli
T5 sequence (Q6B0I6 1-373): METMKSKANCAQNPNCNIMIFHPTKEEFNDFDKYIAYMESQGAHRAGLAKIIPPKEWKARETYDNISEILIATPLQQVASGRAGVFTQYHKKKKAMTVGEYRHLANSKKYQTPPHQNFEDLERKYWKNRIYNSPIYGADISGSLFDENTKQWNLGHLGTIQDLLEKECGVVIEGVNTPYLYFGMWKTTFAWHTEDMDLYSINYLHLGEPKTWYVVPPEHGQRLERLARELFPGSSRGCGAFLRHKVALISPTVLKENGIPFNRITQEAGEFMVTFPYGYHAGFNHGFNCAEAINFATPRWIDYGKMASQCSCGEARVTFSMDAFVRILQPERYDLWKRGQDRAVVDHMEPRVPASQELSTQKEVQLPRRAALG

[6] = target: T6, KDM6B (Homo sapiens, UniProt O15054); test: AlphaScreen KDM inhibition assay; conditions: read-out: IC50 KDM6B (0.1 nM), enzyme 0.1 nM, means ± SD
T6 construct: (D1141- N-terminal S1761) N-terminal (M1- N-terminal R1641); made in house; host or cells: E. coli
T6 sequence (O15054 1141-1643 limits assumed): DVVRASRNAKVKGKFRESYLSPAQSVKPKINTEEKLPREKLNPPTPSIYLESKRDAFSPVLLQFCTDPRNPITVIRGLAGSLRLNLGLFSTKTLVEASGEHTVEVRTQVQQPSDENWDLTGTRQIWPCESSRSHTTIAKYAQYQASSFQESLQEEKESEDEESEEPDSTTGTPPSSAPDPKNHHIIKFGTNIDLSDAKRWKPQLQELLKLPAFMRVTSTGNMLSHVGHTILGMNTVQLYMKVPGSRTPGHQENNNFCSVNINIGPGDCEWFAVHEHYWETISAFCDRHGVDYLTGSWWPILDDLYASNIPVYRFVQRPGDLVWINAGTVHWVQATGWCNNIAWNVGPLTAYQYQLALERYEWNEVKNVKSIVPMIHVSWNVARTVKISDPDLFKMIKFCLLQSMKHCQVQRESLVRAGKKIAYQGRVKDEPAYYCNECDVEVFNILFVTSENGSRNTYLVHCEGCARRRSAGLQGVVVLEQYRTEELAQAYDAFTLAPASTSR

Molecule `O=C(O)c1c[nH]c(=S)[nH]c1=O` [compound 1] has an IC50 [1] of over 200 µM, an IC50 [2] of 208 ± 10 µM and an IC50 [3] of over 100 µM. The IC50 [4] was over 100 µM, the IC50 [5] was over 100 µM and the IC50 [6] was over 100 µM.
For `CSc1ncc(C(=O)O)c(=O)[nH]1` [compound 2, 2-(Methylthio)-3,4-dihydro-4-oxopyrimidine-5-carboxylic Acid], the IC50 [1] was 40.2 ± 2 µM, the IC50 [2] was 3 ± 0.5 µM and the “preference for the inhibition of MINA53 over FIH and KDM4A” value ([2]; from IC50 values, different assay conditions) was about 5 fold. The IC50 [3] was 69.6 ± 3 µM, the IC50 [4] was 17.6 ± 2 µM and the IC50 [5] was 31.9 ± 1 µM. The IC50 [6] was 71.6 ± 3 µM.
In the case of `CCCCSc1ncc(C(=O)O)c(=O)[nH]1` [compound 3, 2-(Butylthio)-3,4-dihydro-4-oxopyrimidine-5-carboxylic Acid], the IC50 [1] is reported as 163 ± 6 µM, the IC50 [2] is reported as 13.1 ± 0.8 µM and the IC50 [3] is reported as 24.2 ± 2 µM. It also gave an IC50 [4] of 9.1 ± 0.6 µM, an IC50 [5] of 15.5 ± 0.8 µM and an IC50 [6] of 43 ± 2 µM.
`CCCCCSc1ncc(C(=O)O)c(=O)[nH]1` [compound 4, 2-(Pentylthio)-3,4-dihydro-4-oxopyrimidine-5-carboxylic Acid] was tested, and the IC50 [1] was 81.2 ± 4 µM, the IC50 [2] was 4.3 ± 0.4 µM and the IC50 [3] was 49.6 ± 4 µM. For the same molecule, the IC50 [4] was 16.5 ± 1.8 µM, the IC50 [5] was 27.5 ± 2 µM and the IC50 [6] was 59.7 ± 4 µM.
`CCCCCCCCCSc1ncc(C(=O)O)c(=O)[nH]1` [compound 5, 2-(Nonylthio)-3,4-dihydro-4-oxopyrimidine-5-carboxylic Acid] was tested, and the IC50 [1] was over 200 µM, the IC50 [2] was 65.4 ± 5 µM and the IC50 [3] was 58.4 ± 3 µM. It also gave an IC50 [4] of 13.4 ± 1 µM, an IC50 [5] of 19.8 ± 0.9 µM and an IC50 [6] of 67.1 ± 3 µM.
Work on `O=C(O)c1cnc(SCC2CCCCC2)[nH]c1=O` [compound 6, 2-((Cyclohexylmethyl)thio)-3,4-dihydro-4-oxopyrimidine-5-carboxylic Acid] yielded an IC50 [1] of 182 ± 8 µM, an IC50 [2] of 5 ± 0.6 µM and an IC50 [3] of 97.9 ± 7 µM. It also gave an IC50 [4] of 20.8 ± 2 µM, an IC50 [5] of 30.3 ± 3 µM and an IC50 [6] of 38.1 ± 3 µM.
In the case of `O=C(O)c1cnc(SCc2ccccc2)[nH]c1=O` [compound 7, 2-(Benzylthio)-3,4-dihydro-4-oxopyrimidine-5-carboxylic Acid], the IC50 [1] is reported as 48 ± 3 µM, the IC50 [2] is reported as 3.8 ± 0.2 µM and the “preferential inhibition of MINA53 over all other tested 2OG oxygenases” value [2] is reported as at least 5 fold. It also gave an IC50 [3] of 67.2 ± 3 µM, an IC50 [4] of 24.6 ± 1.8 µM and an IC50 [5] of 34.7 ± 1.6 µM. The IC50 [6] was 74.6 ± 2 µM.
`O=C(CSc1ncc(C(=O)O)c(=O)[nH]1)c1ccccc1` [compound 8, 2-((2-Oxo-2-phenylethyl)thio)-3,4-dihydro-4-oxopyrimidine-5-carboxylic Acid] was tested, and the IC50 [1] was 23.5 ± 2 µM, the “increase in potency for NO66 (compare 8 with 9)” value ([1]; relative to 9) was over 2 fold and the IC50 [2] was 3 ± 0.2 µM. For the same molecule, the IC50 [3] was 45.5 ± 3 µM, the IC50 [4] was 32.8 ± 2.1 µM and the IC50 [5] was 26.7 ± 1.9 µM. For the same molecule, the IC50 [6] was 46.4 ± 3 µM.
`O=C(O)c1cnc(SCCc2ccccc2)[nH]c1=O` [compound 9, 2-(Phenethylthio)-3,4-dihydro-4-oxopyrimidine-5-carboxylic Acid] gave an IC50 [1] of 71.7 ± 4 µM, an IC50 [2] of 1.6 ± 0.2 µM and an IC50 [3] of 52.7 ± 4 µM. For the same molecule, the IC50 [4] was 19 ± 1.2 µM, the IC50 [5] was 30.8 ± 2.2 µM and the IC50 [6] was 47.4 ± 4 µM.
In the case of `O=C(O)c1cnc(SCCCc2ccccc2)[nH]c1=O` [compound 10, 2-((3-Phenylpropyl)thio)-3,4-dihydro-4-oxopyrimidine-5-carboxylic Acid], the IC50 [1] is reported as 36.9 ± 2 µM, the IC50 [2] is reported as 1.5 ± 0.1 µM and the “preferential inhibition of MINA53 over all other tested 2OG oxygenases” value [2] is reported as at least 20 fold. The IC50 [3] was 68.3 ± 4.2 µM, the IC50 [4] was 74.2 ± 4.8 µM and the IC50 [5] was 59.1 ± 3.9 µM. For the same molecule, the IC50 [6] was 70 ± 4 µM.
For `O=C(O)c1cnc(SCCCCc2ccccc2)[nH]c1=O` [compound 11, 2-((4-Phenylbutyl)thio)-3,4-dihydro-4-oxopyrimidine-5-carboxylic Acid], the IC50 [1] was 22.9 ± 2 µM, the IC50 [2] was 2.4 ± 0.2 µM and the IC50 [3] was 64 ± 4 µM. For the same molecule, the IC50 [4] was 14.3 ± 1 µM, the IC50 [5] was 26 ± 1.5 µM and the IC50 [6] was 45.8 ± 3 µM.
Work on `CCOC(=O)/C=C\Sc1ncc(C(=O)O)c(=O)[nH]1` [compound 12, (Z)-2-((3-Ethoxy-3-oxoprop-1-en-1-yl)thio)-3,4-dihydro-4-oxopyrimidine-5-carboxylic Acid] yielded an IC50 [1] of 80.2 ± 5 µM, an IC50 [2] of 5.4 ± 0.4 µM and an IC50 [3] of 61.2 ± 4 µM. The IC50 [4] was 11.2 ± 0.9 µM, the IC50 [5] was 22 ± 1.2 µM and the IC50 [6] was 28.6 ± 1.6 µM.
With `O=C(O)/C=C\Sc1ncc(C(=O)O)c(=O)[nH]1` [compound 13, (Z)-2-((2-carboxyvinyl)thio)-3,4-dihydro-4-oxopyrimidine-5-carboxylic Acid] the IC50 [1] was 100 ± 4 µM, the IC50 [2] was 6.8 ± 0.5 µM and the IC50 [3] was 63.3 ± 3.7 µM. It also gave an IC50 [4] of 64.1 ± 4 µM, an IC50 [5] of 123 ± 8 µM and an IC50 [6] of 75.3 ± 7 µM.
